“Also recorded” adds a separate entry of the source.
How the values were obtained:
[1] = system: UCB T-cells; test: Cytoplasmic IFN-γ and NFAT1 expression in UCB T-cells during mitogen stimulation; assay type: cell-based, human; conditions: for percentages of IFN-γ-expressing UCB T-cells: exogenous cytokine added during mitogen stimulation, IFN-γ 100 or 1,000 U/ml, 24 h
Experimental: To further test expression and regulation, exogenous IFN-γ was added (100 or 1,000 U/ml) during mitogen stimulation and cytoplasmic IFN-γ expression in UCB T-cells was measured.

[2] = system: murine BMNCs and CFU-GM progenitor cells; test: Migration of murine BMNCs and CFU-GM progenitors to SDF-1 gradient after cationic peptide priming; assay type: cell-based
Experimental: FIG. 8A-B—A) BM mononuclear cell and B) CFU-GM migration in response to an SDF-1 gradient after priming with LL-37 or hBD-2. Values are fold increases of migrated cells compared to media alone.
FIG. 17A-B—Cationic peptides released from granulocytes enhance responsiveness of HSPCs to SDF-1 gradient. […] Values are the fold increases of migrated cells compared to media alone. M, media alone; SDF-1 (L), 50 ng/ml; SDF-1 (H), 300 ng/ml; C3a, 1 μg/ml. * P<0.05 as compared with SDF-1 (50 ng/ml) alone. The data shown represent the combine results from four independent experiments carried out in triplicate per group (n=12).
We also evaluated the effect of complement fragment 5a (C5a). […] After leaving the BM, granulocytes undergo degranulation in response to plasma C5a and secrete cationic peptides, such as cathelicidin (LL-37) and β-defensin-2 (hBD-2). […] It was hypothesized that this response may be affected by the distribution of membrane lipids by cationic peptides. […] Direct confocal analysis of CXCR4 and lipid raft colocalization in the presence or absence of cationic peptides confirmed these findings.

[3] = system: CD34+ cells; test: Transwell chemotaxis of CD34+ cells to an SDF-1 gradient (priming); assay type: cell-based, human
Experimental: (§1) FIG. 11A-B—Effect of SLP and its components on chemotaxis of CD34^+ cells. Panel A: Chemotaxis of BM CD34^+ cells towards medium alone (control), SDF-1 low (10 ng/mL) alone, SLP (combined SLP from three patients), SDF-1 low+SLP, and SDF-1 high (300 ng/mL). Data are pooled from quadruplicate samples from three independent experiments. *p<0.00001. Panel B: Chemotaxis of UCB CD34^+ cells to medium alone (control), SDF-1 low (10 ng/mL) alone and SDF-1 low (10 ng/mL)+uPAR (1 μg/mL) or +ICAM (1 μg/mL) or +VCAM (1 μg/mL) or +FN (2 μg/mL), or +FG (4 μg/mL) or +C3a (1 μg/mL). Data are pooled from quadruplicate samples from three independent experiments. * p<0.00001.
Chemotaxis of CD34^+ cells to medium alone (control), C3a (1 μg/ml), C3adesArg (1 μg/ml), SDF-1 low (10 ng/mL) alone, and SDF-1 low (10 ng/mL)+C3a low (0.1 μg/ml) or SDF-1 low (10 ng/mL)+C3a (1 μg/ml) or SDF-1 low (10 ng/mL)+C3adesArg (1 μg/ml). Data are pooled from quadruplicate samples from three independent experiments.* p<0.00001.
FIG. 13A-B—Chemotaxis of cells to an SDF-1 gradient is lipid raft-dependent. Panel A: Chemotaxis of CD34^+ cells to medium alone (control), SDF-1 (300 ng/mL) and SDF-1 (300 ng/mL) after preincubation for 1 hr with Amphotericin (10 μg/mL) or Nystatin (50 μg/mL). Cells were collected after chemotaxis from the lower chambers and plated in a clonogenic assay. The number of CFU-GM and BFU-E colonies formed by harvested cells is shown as a percentage of control values. Data are pooled from quadruplicate samples from three independent experiments. *p<0.0001. Panel B: Chemotaxis of CD34^+ cells towards medium alone (control), SDF-1 low (10 ng/mL) alone, or SDF-1 low with cells exposed to C3a (1 μg/mL). Cells pretreated before chemotaxis for 1 hr with MβCD (2.5 mM) are shown as gray bars. Data are pooled from quadruplicate samples from three independent experiments. * p<0.00001.
HSPCs from the mPB engraft faster compared to HSPCs aspirated from BM. To test the hypothesis that mPB-derived HSPCs are primed in their responses to SDF-1 by molecules present in SLP, we pooled together SLP from three patients and exposed BM or UCB CD34^+ cells to the SLP during chemotaxis to a low (10 ng/mL) dose of SDF-1.
To address this issue further, the formation of rafts in the cells was perturbed by MβCD, which depletes cholesterol from the cell membrane. The CD34^+ cells were pre-incubated with MβCD for 1 hr. Chemotaxis to a low dose of SDF-1 in the presence of C3a (in the upper chambers) was evaluated.

[4] = system: UCB CD34+ cells; test: Transwell chemotaxis of UCB CD34+ cells to SDF-1 (priming); assay type: cell-based, human; conditions: for chemotactic response of UCB CD34+ cells to SDF-1: added to lower chambers with SDF-1 10 ng/mL, uPAR, ICAM, VCAM, C3a 1 μg/mL, FN 2 μg/mL, FG 4 μg/mL; for induction of chemotaxis of HSPCs when used alone: without SDF-1
Experimental: as §1
An increased migration of UCB-derived CD34^+ cells, as compared to BM and mPB CD34^+ cells was reported in transwell migration assays was previously reported. However, we noticed large inter-individual differences in the in vitro migratory ability of UCB CD34^+ cells, ranging from 1.1% to 14.3% for spontaneous migration and 3.1% to 62.3% for SDF-1-induced (300 ng/mL) migration. The lower migratory capacity in vitro of UCB-derived CD34^+ cells was not due to lower expression of CXCR4, but likely reflects the decreased migratory behavior of these cells. […] Based on this, we postulate that UCB HSPC responsiveness to an SDF-1 gradient varies with each collected UCB unit and that, in cases when responsiveness is low, UCB HSPCs should be identified and primed before infusion.
Moreover, as SLP contains several components that potentially could prime the responses of CD34^+ cells, (Example 2, FIG. 11, panel B) the most important being PMV and activated complement proteins such as anaphylatoxin C3a, soluble VCAM-1, soluble ICAM-1, uPAR, FG, and FN, we evaluated whether these factors could induce the chemotaxis of HSPCs when used alone. […] We also examined whether FG, FN, soluble VCAM-1, soluble ICAM-1, uPAR, and C3a prime HSPCs in their responses to SDF-1. […] To determine whether this also affects UCB CD34^+ clonogenic progenitors, UCB CD34^+ cells were collected from the lower chambers after the chemotaxis assay and plated in methylcellulose cultures. […] Moreover, a similar effect for the established hematopoietic cell lines Molt 4, Nalm-6, and THP-1 was also found (data not shown).

[5] = system: CXCR4; test: Western blot of CXCR4 in lipid raft membrane fractions of THP-1 cells; assay type: cell-based, human
Experimental: FIG. 15A-B—Western blot analysis of the colocalization of CXCR4 in fractions of cell membranes enriched in lipid rafts (fractions 3-5) and depleted of lipid rafts (fractions 9-11). Panel A: Hematopoietic THP-1 cells were stimulated by C3a (1 μg/mL) or desArgC3a (1 μg/mL) or not stimulated (control). CXCR4 was detected in these membrane fractions by Western blot along with ganglioside GM1, a marker of lipid rafts. Experiments were performed three times with similar results. Panel B: In control experiments, cells were pretreated for 1 hr with 10 mM MβCD. A representative study is shown.
Furthermore, direct evidence of the effect of priming agents on CXCR4 incorporation into membrane lipid rafts was obtained from Western blot analysis of CXCR4 expression in various fractions of cell membranes isolated according to their lipid raft content (Example 2, FIG. 15A-B). […] The role of C3a in incorporation of CXCR4 into membrane lipid rafts in UCB cells and involvement of other signaling molecules to this phenomenon will be evaluated in Aim 1.

[6] = system: NFAT1; test: NFAT1 protein and miR-184 in UCB CD4 T-cells stimulated with αCD3/CD28 plus exogenous IFN-γ; assay type: cell-based, human; conditions: for NFAT1 protein expression: CD3/28 stimulation 24 h, absence of monocytes, 1000 U/ml
Experimental: FIG. 22A-B—Rescue of NFAT1 protein in UCB CD4 T-cells during primary stimulation in the presence of exogenous IFN-γ. UCB CD4 T-cells were stimulated with αCD3/CD28 for 24 h with 1000 U/ml of exogenous rh-IFN-γ. Cell lysates were harvested and Western Blot was probed for NFAT1 and β-actin.

Molecule: TNF-α
- percentages of IFN-γ-expressing UCB T-cells [1]: did not result in up-regulation

Molecule: MIP-3alpha: agonist of a membrane receptor that may bind the cationic peptides [reference compound]
- responsiveness of hematopoietic progenitors to plasma SDF-1 (priming effect) [2]: did not show similar priming effects

Molecule: desArgC3a: fragment of C3a where the end arginine residue is cleaved; 76 residues; SEQ ID NO:2
- chemotaxis of human CD34+ cells to low-threshold doses of SDF-1 ([3]; SDF-1 low 10 ng/mL, C3a or C3adesArg 1 μg/ml): potentiate (prime) chemotaxis
- chemoattraction of CD34+ cells by the C3 cleavage fragment on its own ([3]; no SDF-1, 1 μg/ml): neither C3 cleavage fragments chemoattract
- responsiveness of UCB cells to SDF-1 gradient ([4]; UCB-derived CD34+ cells exposed/primed): significantly increase the responsiveness
- incorporation of Rac-1 into membrane lipid rafts [5]: increased the incorporation of Rac-1
- incorporation of CXCR4 into GM1-enriched membrane lipid rafts (fractions 3-5) ([5]; 1 μg/mL): stimulates incorporation of CXCR4

Molecule: IFN-γ: exogenous rh-IFN-γ
- percentages of IFN-γ-expressing UCB T-cells [1]: nearly increased to that measured in adult T-cells
- NFAT1 expression and concomitant IFN-γ expression ([1]; mitogen (ConA) stimulation plus exogenous IFN-γ): strong increases
- IFN-γ expression ([1]; treatment with IFN-γ alone): did not stimulate IFN-γ expression
- NFAT1 expression ([1]; treatment with IFN-γ alone): only slightly increased
- miR-184 expression (qRT-PCR) ([6]; CD3/28 primary stimulation): marked decrease; also recorded: observed to decrease
- NFAT1 protein expression [6]: increases in NFAT1 protein expression
- NFAT1 protein expression ([6]; listed as rh-IFN-γ): noted to increase

B1: soluble VCAM-1: soluble VCAM-1, component of SLP (protein, UniProt P19320 25-698, looked up)
extracellular domain: FKIETTPESRYLAQIGDSVSLTCSTTGCESPFFSWRTQIDSPLNGKVTNEGTTSTLTMNPVSFGNEHSYLCTATCESRKLEKGIQVEIYSFPKDPEIHLSGPLEAGKPITVKCSVADVYPFDRLEIDLLKGDHLMKSQEFLEDADRKSLETKSLEVTFTPVIEDIGKVLVCRAKLHIDEMDSVPTVRQAVKELQVYISPKNTVISVNPSTKLQEGGSVTMTCSSEGLPAPEIFWSKKLDNGNLQHLSGNATLTLIAMRMEDSGIYVCEGVNLIGKNRKEVELIVQEKPFTVEISPGPRIAAQIGDSVMLTCSVMGCESPSFSWRTQIDSPLSGKVRSEGTNSTLTLSPVSFENEHSYLCTVTCGHKKLEKGIQVELYSFPRDPEIEMSGGLVNGSSVTVSCKVPSVYPLDRLEIELLKGETILENIEFLEDTDMKSLENKSLEMTFIPTIEDTGKALVCQAKLHIDDMEFEPKQRQSTQTLYVNVAPRDTTVLVSPSSILEEGSSVNMTCLSQGFPAPKILWSRQLPNGELQPLSENATLTLISTKMEDSGVYLCEGINQAGRSRKEVELIIQVTPKDIKLTAFPSESVKEGDTVIISCTCGNVPETWIILKKKAETGDTVLKSIDGAYTIRKAQLKDAGVYECESKNKVGSQLRSLTLDVQGRENNKDYFSPE
modifications: extracellular domain
notes: soluble VCAM-1, component of SLP
- chemotactic response of UCB CD34+ cells to SDF-1 [4]: increased the chemotactic response
- induction of chemotaxis of HSPCs when used alone [4]: no evidence that they did

B2: soluble ICAM-1: soluble ICAM-1, component of SLP (protein, UniProt P05362 28-480, looked up)
extracellular domain: QTSVSPSKVILPRGGSVLVTCSTSCDQPKLLGIETPLPKKELLLPGNNRKVYELSNVQEDSQPMCYSNCPDGQSTAKTFLTVYWTPERVELAPLPSWQPVGKNLTLRCQVEGGAPRANLTVVLLRGEKELKREPAVGEPAEVTTTVLVRRDHHGANFSCRTELDLRPQGLELFENTSAPYQLQTFVLPATPPQLVSPRVLEVDTQGTVVCSLDGLFPVSEAQVHLALGDQRLNPTVTYGNDSFSAKASVSVTAEDEGTQRLTCAVILGNQSQETLQTVTIYSFPAPNVILTKPEVSEGTEVTVKCEAHPRAKVTLNGVPAQPLGPRAQLLLKATPEDNGRSFSCSATLEVAGQLIHKNQTRELRVLYGPRLDERDCPGNWTWPENSQQTPMCQAWGNPLPELKCLKDGTFPLPIGESVTVTRDLEGTYLCRARSTQGEVTRKVTVNVLSPRYE
modifications: extracellular domain
notes: soluble ICAM-1, component of SLP
- chemotactic response of UCB CD34+ cells to SDF-1 [4]: increased the chemotactic response
- induction of chemotaxis of HSPCs when used alone [4]: no evidence that they did
